In patent publication US20260043007A1, “METHOD FOR PRODUCING CARDIAC MUSCLES” (Kyoto University, priority 2022, published 2026):

Columns and labels:
[1] = test system: marker genes of atrial myocytes (NR2F1, NR2F2, NPPA, KCNA5, KCNJ3, TBX5 and MYL7); experiment: Expression analysis of atrial myocyte marker genes in sorted cell subpopulations; format: cell-based, human; conditions: both CD151-high and CD151-low, compared to DMSO-added control population
Procedure: (§1) On the 6th day of differentiation, the medium was replaced with cardiomyocyte induction medium 3, and from the 8th day of differentiation onwards, 3 μM of γ-secretase inhibitor (LY411575) that inhibits Notch signaling was added when changing the medium, and the cells were cultured at 37° C. under 5% oxygen conditions until the 10th day. Cells added with 0.1% DMSO were also prepared as a control. Thereafter, the medium was changed on the 10th, 13th, 15th, and 17th days, and after the medium change on the 10th day, the cells were cultured under normal oxygen conditions until the 20th day. As the cardiomyocyte induction medium 3, StemPro-34 SFM supplemented with 1% L-glutamine, 150 μg/ml transferrin, 50 μg/ml ascorbic acid, 4×10^-4 M monothioglycerol, and 5 ng/ml VEGF was used.
(§2) The expression of marker genes indicating Notch signal activity and atrial myocyte markers was analyzed for the cardiomyocyte subpopulations “DMSO/CD151-high”, “DMSO/CD151-low”, “Notch inhibitor/CD151-high”, and “Notch inhibitor/CD151-low” obtained in Experimental Example 2.
(§3) According to the conventional method, total RNA was extracted from each cell subpopulation and expression analysis was performed for the target gene of Notch signal (HEY2) and the marker genes of atrial myocytes (NR2F1, NR2F2, NPPA, KCNA5, KCNJ3, TBX5 and MYL7). […]

[2] = test system: HEY2 (target gene of Notch signal); experiment: Expression analysis of the target gene of Notch signal (HEY2) in sorted cell subpopulations; format: cell-based, human; conditions: both CD151-high and CD151-low, compared to DMSO-added control
Procedure: as §1, §2, §3

[3] = test system: CD151 expression in EmGFP-positive cells induced from human iPS cell line (1390D4 strain); experiment: Sorting of atrial myocyte population based on CD151 expression level (flow cytometry); format: cell-based; conditions: 3 μM LY411575 from day 8 to day 20 of differentiation, mean ± standard error
Procedure: A cell population containing cardiomyocytes was induced from iPSC under atrial myocyte differentiation conditions or ventricular myocyte differentiation conditions. As iPSC, a double knock-in human iPS cell line (1390D4 strain) was used, in which EmGFP was inserted into the TNNI1 locus and mCherry was inserted into the TNNI3 locus as reporter proteins.
To differentiate iPSC into cardiomyocytes, iPSC was seeded into low-adhesion 6-well plates (2×10^6 cells/1.5 ml/well) and statically cultured at 37° C. and 5% oxygen to form embryoid bodies (day 0). The culture medium used was StemPro-34 SFM (Thermo Fisher Scientific) supplemented with 1% L-glutamine, 150 μg/ml transferrin, […] ascorbic acid, 4×10^-4 M monothioglycerol, 10 μM Rock inhibitor (Y-27632), 2 ng/ml BMP4, and 0.5% Matrigel. […]
On the 20th day of culture, the cell population containing atrial myocytes was dispersed into single cells and the cell number was counted. […] CD151 expression in EmGFP-positive cells was analyzed using a flow cytometer (BD FACS Aria Fusion cell sorter). The fluorescence intensity of 95% or more of the negative control cells was set as the threshold, and the cell subpopulations showing fluorescence intensity lower than the threshold were defined as “CD151-low” and the cell subpopulations showing fluorescence intensity higher than the threshold were defined as “CD151-high”. […]

[4] = test system: cardiomyocyte subpopulations differentiated from human iPS cells; experiment: Proportion of atrial myocytes by whole-cell patch clamp electrophysiology; format: cell-based; conditions: for atrial myocytes (%): APD 30/90 less than 0.3 and dv/dtmax 10 or more
Procedure: as §1
The proportion of atrial myocytes was determined by an electrophysiological method for the “Notch inhibitor/CD151-high” and “Notch inhibitor/CD151-low” cardiomyocyte subpopulations obtained in Experimental Example 2.
Each cell subpopulation was cultured on a fibronectin-coated cover glass. Culture was performed at 37° C. under normal oxygen conditions using StemPro-34 SFM supplemented with 1% L-glutamine, 150 μg/ml transferrin, 50 ug/ml ascorbic acid, 4×10^-4 M monothioglycerol, and 5 ng/ml VEGF, with medium change every 3 days. Cells on the 15th and 16th days of culture were subjected to electrophysiological analysis.
Analysis was performed using the whole-cell patch clamp method using Axopatch 200B amplifier (Molecular Devices) and pCLAMP software. Electrodes were made with glass capillaries (WPI) using a micropipette puller and filled with intracellular solution (130 mM KOH, 130 mM L-aspartic acid, 20 mM KC1, 5 mM NaCl, 10 mM HEPES, 5 mM Mg-ATP, 10 mM EGTA, 1 mM MgC12, PH 7.2). Experiments were performed at 35-37° C. while perfusing Gey's balanced salt solution (Sigma) as the extracellular solution. The spontaneous action potential of each cell was recorded for 1 min in current clamp mode. APD30, APD90, and maximum velocity of waveform rise (dv/dtmax) were calculated from the average waveform of 8-10 consecutive waveforms. Cells showing a waveform with APD 30/90 of less than 0.3 and dv/dtmax of 10 or more were defined as atrial myocytes. Cells showing a waveform with APD 30/90 of 0.3 or more and dv/dtmax of 10 or more or dv/dtmax of less than 10 were classified as other cells. […]

[5] = CD151-high subpopulation, n = 19
[6] = CD151-low subpopulation, n = 20

## C[C@H](NC(=O)[C@@H](O)c1cc(F)cc(F)c1)C(=O)N[C@@H]1C(=O)N(C)c2ccccc2-c2ccccc21 [Notch inhibitor]
[1]
  expression of atrial myocyte markers: increased
[2]
  expression of the HEY2 gene: reduced
[3]
  Cell population (%) CD151-high: 39.9 ± 3.3%
  Cell population (%) CD151-low: 60.1 ± 3.3%
[4]; [5]
  other cells (%): 68%
  atrial myocytes (%): 32%
[4]; [6]
  other cells (%): 20%
  atrial myocytes (%): 80%
